The subject of series [1] is fundus strips (stomach muscularis). As to the kind of experiment: Fundus strip length after acetylcholine-induced contraction. Conditions: for Strip length (as percentage of baseline): 70 mg/L + acetylcholine 10^-4 M, 37° C. Further details: species or system domestic pigs. How it is done:
Within the gastro-intestinal tract, local circuits play a role in the regulation of food intake and transport. Mechanical extension of the stomach as a result of food intake activates stretch receptors (neurons) which in turn induces satiety signals. The pharmacology of stretch receptors can be analyzed in fundus strip preparations. Fresh stomach tissue (0-1 h after slaughter) was collected from routinely slaughtered domestic pigs. The fundus region of the stomach was removed and washed with cold saline (0.9% NaCl) solution. Tissue was submerged in clean cold saline and transported to the laboratory (transport time 30 min.). The mucosa and submucosa were removed from the muscularis (muscle layer). The muscularis was cut along the longitudinal muscle fibres in strips of approximately 1 by 5 cm. The strips were incubated for 15 min in a 37° C. saline solution. Thereafter, fundus strips were placed vertically in a transparent container, kept at 37° C. Stretching was ensured by a 5 g weight at the bottom of the strip. Test solutions were added into the container. Acetylcholine (10^−4M) exposure was used to induce a contraction of the fundus tissue. Pictures were taken at 0, 5, 10, 15, 30, 45 and 60 minutes after the start of the experiment with a digital camera. The length of the strips was measured by a blinded assessor (unknowing of the treatment) using Photoshop software (Adobe).

Series [2] has the same test system. The experiment in a line: Acid sensitivity of lidocaine: acetic acid pre-exposure, then fundus strip experiment. On the set-up: species or system domestic pigs. How it is done:
Fresh stomach tissue (0-1 h after slaughter) was collected from routinely slaughtered domestic pigs. The fundus region of the stomach was removed and washed with cold saline (0.9% NaCl) solution. Tissue was submerged in clean cold saline and transported to the laboratory (transport time 30 min.).
The mucosa and submucosa were removed from the muscularis (muscle layer). The muscularis was cut along the longitudinal muscle fibres in strips of approximately 1 by 5 cm. The strips were incubated for 15 min in a 37° C. saline solution.
Thereafter, fundus strips were placed vertically in a transparent container, kept at 37° C. Stretching was ensured by a 5 g weight at the bottom of the strip. Test solutions were added into the container. Acetylcholine (10^−4M) exposure was used to induce a contraction of the fundus tissue. Pictures were taken at 0, 5, 10, 15, 30, 45 and 60 minutes after the start of the experiment with a digital camera. The length of the strips was measured by a blinded assessor (unknowing of the treatment) using Photoshop software (Adobe). Values were expressed as percentage of baseline (t=0 min).
The acid sensitivity of lidocaine was determined by exposing lidocaine to acetic acid (pH 2.5) for 1, 5 and 15 minutes before carrying out experiments on fundus strips, as in Example 5.

Marks after values point to notes of the source that are not given here.

On to `CCOC(=O)c1ccc(N)cc1` [Benzocaine, benzocaine], for which the “Strip length (as percentage of baseline)” value in series [1] (time 0 min (baseline)) is recorded as 100 percentage of baseline; in series [1] (time 5 min), 102.7* percentage of baseline; in series [1] (time 10 min), 102.3* percentage of baseline; in series [1] (time 15 min), 102.4** percentage of baseline; in series [1] (time 30 min) it was 101.5* percentage of baseline; in series [1] (time 45 min), 101.3** percentage of baseline. Also, in series [1] (time 60 min), the “Strip length (as percentage of baseline)” value is 101.3** percentage of baseline.
On to `CCCCN1CCCCC1C(=O)Nc1c(C)cccc1C` (centres unmarked) [Bupivacaine, bupivacaine], for which the “Strip length (as percentage of baseline)” value in series [1] (time 0 min (baseline)) is 100 percentage of baseline; in series [1] (time 5 min), 106.4*** percentage of baseline; in series [1] (time 10 min), 107.1*** percentage of baseline; in series [1] (time 15 min), 107.0*** percentage of baseline; in series [1] (time 30 min) it was 106.8*** percentage of baseline; in series [1] (time 45 min), 104.9*** percentage of baseline. Further, in series [1] (time 60 min), the “Strip length (as percentage of baseline)” value is on record as 101.9*** percentage of baseline.
Take `CCN(CC)CC(=O)Nc1c(C)cccc1C` [Lidocaine, lidocaine]: the “Strip length (as percentage of baseline)” value in series [1] (time 0 min (baseline)) is listed as 100 percentage of baseline; in series [1] (time 5 min) it was 105.7** percentage of baseline; in series [1] (time 10 min), 103.6* percentage of baseline; in series [1] (time 15 min) it was 101.8* percentage of baseline; in series [1] (time 30 min) it was 99.5 percentage of baseline; in series [1] (time 45 min) it was 98.7 percentage of baseline. Also, the “Strip length (as percentage of baseline)” value in series [1] (time 60 min) is on record as 98.0* percentage of baseline. The “Effect on contraction induced by acetylcholine” value in series [1] (lidocaine 70 mg/L, conclusion in words) is “reversed”. Further, the “Acid sensitivity (activity after exposure to low pH)” value in series [2] (acetic acid pH 2.5, conclusion in words) is “inactivated at low pH”. In addition, the “Activity on acetylcholine induced contraction after shortest acid exposure” value in series [2] (acid exposure time 1 min, conclusion in words) is reported as “remains active”. Further, the “Strip length (percentage of baseline)” value in series [2] (lidocaine exposed 1 min. to acetic acid pH 2.5, time 0 min (baseline)) is listed as 100 percentage of baseline; in series [2] (lidocaine exposed 1 min. to acetic acid pH 2.5, time 5 min), 114.9 percentage of baseline; in series [2] (lidocaine exposed 1 min. to acetic acid pH 2.5, time 10 min), 115.8 percentage of baseline; in series [2] (lidocaine exposed 1 min. to acetic acid pH 2.5, time 15 min), 116.7 percentage of baseline; in series [2] (lidocaine exposed 1 min. to acetic acid pH 2.5, time 30 min), 116.2* percentage of baseline; in series [2] (lidocaine exposed 1 min. to acetic acid pH 2.5, time 45 min), 115.0* percentage of baseline. Besides, the “Strip length (percentage of baseline)” value in series [2] (lidocaine exposed 1 min. to acetic acid pH 2.5, time 60 min) is on record as 113.6* percentage of baseline; in series [2] (lidocaine exposed 5 min. to acetic acid pH 2.5, time 0 min (baseline)), 100 percentage of baseline; in series [2] (lidocaine exposed 5 min. to acetic acid pH 2.5, time 5 min) it was 108.9 percentage of baseline; in series [2] (lidocaine exposed 5 min. to acetic acid pH 2.5, time 10 min), 108.3 percentage of baseline; in series [2] (lidocaine exposed 5 min. to acetic acid pH 2.5, time 15 min), 108.0 percentage of baseline; in series [2] (lidocaine exposed 5 min. to acetic acid pH 2.5, time 30 min), 108.0 percentage of baseline. Further, the “Strip length (percentage of baseline)” value is reported as 106.8 percentage of baseline in series [2] (lidocaine exposed 5 min. to acetic acid pH 2.5, time 45 min); 104.9 percentage of baseline in series [2] (lidocaine exposed 5 min. to acetic acid pH 2.5, time 60 min); 100 percentage of baseline in series [2] (lidocaine exposed 15 min. to acetic acid pH 2.5, time 0 min (baseline)); 106.3 percentage of baseline in series [2] (lidocaine exposed 15 min. to acetic acid pH 2.5, time 5 min); 105.9 percentage of baseline in series [2] (lidocaine exposed 15 min. to acetic acid pH 2.5, time 10 min); 105.2 percentage of baseline in series [2] (lidocaine exposed 15 min. to acetic acid pH 2.5, time 15 min). Also, the “Strip length (percentage of baseline)” value in series [2] (lidocaine exposed 15 min. to acetic acid pH 2.5, time 30 min) is 102.4 percentage of baseline; in series [2] (lidocaine exposed 15 min. to acetic acid pH 2.5, time 45 min) it was 97.6 percentage of baseline; in series [2] (lidocaine exposed 15 min. to acetic acid pH 2.5, time 60 min), 93.8 percentage of baseline.
On to `CN(C(=O)CN(CCO)CC(=O)N(C)C(C)(C)Cc1ccccc1)C(C)(C)Cc1ccccc1` [Oxethazaine], for which the “Strip length (as percentage of baseline)” value in series [1] (time 0 min (baseline)) is recorded as 100 percentage of baseline; in series [1] (time 5 min) it was 104.5 percentage of baseline; in series [1] (time 10 min), 104.8* percentage of baseline; in series [1] (time 15 min), 104.3* percentage of baseline; in series [1] (time 30 min) it was 101.3 percentage of baseline; in series [1] (time 45 min), 98.2 percentage of baseline. In addition, the “Strip length (as percentage of baseline)” value in series [1] (time 60 min) was 94.6 percentage of baseline.
`CCCNC(C)C(=O)Nc1ccccc1C` (centres unmarked) [Prilocaine, prilocaine]: the “Strip length (as percentage of baseline)” value in series [1] (time 0 min (baseline)) was 100 percentage of baseline; in series [1] (time 5 min), 105.1* percentage of baseline; in series [1] (time 10 min) it was 105.8** percentage of baseline; in series [1] (time 15 min), 106.2** percentage of baseline; in series [1] (time 30 min) it was 106.3** percentage of baseline; in series [1] (time 45 min), 104.1* percentage of baseline. For the same compound, in series [1] (time 60 min), the “Strip length (as percentage of baseline)” value is on record as 100.2* percentage of baseline.

The values above are taken from patent publication US20250009689A1, “GASTRO-RETENTIVE ORAL DOSAGE UNIT CONTAINING A LOCAL ANAESTHETIC” (OREXA B.V., priority 2021, published 2025).
